Tests used:
[1] = system: human neutrophils; assay: Citrullinated histone H3 (CitH3) NET induction in PMA-stimulated human neutrophils; type: cell-based; conditions: for NETosis (anti-CitH3 signal), comparison of class I/IIb and class IIb selective inhibitors: drugs 10, 2, 0.4, 0.08 μM 1 hour, then 1 μM PMA 3 hours, FIG. 5F
Protocol: FIGS. 1A-H. Class I/II HDACs drive NET formation • (A and B) Freshly purified human (A) or mouse (B) neutrophils were treated with the indicated HDAC inhibitors at different doses (10, 2, 0.4, 0.08 μM), or with GSK484 (10 μM), for 1 h and then stimulated with 1 μM PMA for 3 h. Cells were fixed and stained with anti-citrullinated histone H3 (CitH3) antibody. NETosis induction was measured as the level of anti-CitH3 fluorescent signal. PMA alone represents 100% of NET induction. “-”: Cells treated with the highest dose of the indicated drug but not activated with PMA. • (C and D) Human neutrophils were treated, or not, with ricolinostat or GSK484 and then stimulated with 1 μM PMA. NETosis induction was measured as area of nuclei stained with DAPI. (C) 3D reconstruction of nuclei in each treatment (grid size 7.8 μm). (D) Quantification of DAPI signal from multiple fields of view (D) (n=9 for unstimulated, not pretreated with any drug [NT] and ricolinostat, n=7 for GSK484). • (E and F) Human neutrophils were treated as in (C-D), and immunoblot analysis of the indicated proteins was performed. Relative quantification of band intensity was analyzed with ImageJ software (F). White violins plots depict the quantification of histone H3 acetylation; red violin plots depict the quantification of histone H3 citrullination. Immunoblot in E is representative of four independent experiments. Gasdermin D NT, gasdermin D N terminal; pMLKL, phospho-MLKL. • (G) Human (left) or murine (right) neutrophils were treated, or not, with ricolinostat (10 μM) and then stimulated with 1 μM PMA for 3 h. ROS production was measured by luminescence with luminol-HRP. Histograms represent the total amount of ROS produced overtime. • (H) Murine neutrophils were treated, or not, with ricolinostat (10 μM) and then stimulated with fluorescent E. coli at the indicated multiplicity of infection (MOI) for 1 h. The histogram represents the percentage of neutrophils positive for E. coli staining. Graphs show mean±SEM. Statistics were calculated using one-way ANOVA (A, B, D) and two-way ANOVA (F, G, H) (*p<0.05; **p<0.01; ****p<0.0001. n.s., not significant). Statistics refers to the comparison with neutrophils stimulated with PMA alone (A, B). Gray stars represent comparison of all experimental groups with the unstimulated control, and black stars represent comparison between drug-treated groups and cells treated with PMA only (NT) (D). See also FIGS. 5A-J.
FIGS. 5A-J. Class I/II HDACs drive NET formation. • A) Quantification of extracellular DNA released by neutrophils treated, or not, with 1 μM GSK484 for 1 h and then stimulated with 1 μM PMA for 4 hours. Unstimulated, neutrophils not treated with drugs were used as a control. • B) Freshly purified human neutrophils were treated with the indicated HDAC inhibitors at different doses (0.08, 0.4, 2 and 10 μM) for 1 hour. Extracellular DNA release was assessed in the supernatant 3 hours after PMA stimulation. The dotted line represents the amount of DNA released from neutrophils treated with PMA alone. “-”: cells treated with the highest dose of the indicated drug but not activated with PMA. • C) Freshly purified human neutrophils were stimulated for 1 h, 3 h or 5 h. Cells were fixed and stained with an anti-CitH3 antibody. NETosis induction was measured as level of anti-CitH3 fluorescent signal. 5h-PMA treatment represents 100% NET induction. • D) Representative images of freshly isolated human neutrophils treated or not with 10 μM of the indicated drugs and stimulated with 1 μM PMA for 3 hours. Cells were fixed and then stained for CitH3 (red) and nuclei (blue). Scale bar=100 μm. • E) Murine neutrophils were treated with ricolinostat or GSK484 and then stimulated with […] for 3 hours. NET induction was measured as in (C). […]

[2] = system: mouse neutrophils; assay: Citrullinated histone H3 (CitH3) NET induction in PMA-stimulated mouse neutrophils; type: cell-based
Protocol: FIGS. 1A-H. Class I/II HDACs drive NET formation • (A and B) Freshly purified human (A) or mouse (B) neutrophils were treated with the indicated HDAC inhibitors at different doses (10, 2, 0.4, 0.08 μM), or with GSK484 (10 μM), for 1 h and then stimulated with 1 μM PMA for 3 h. Cells were fixed and stained with anti-citrullinated histone H3 (CitH3) antibody. NETosis induction was measured as the level of anti-CitH3 fluorescent signal. PMA alone represents 100% of NET induction. “-”: Cells treated with the highest dose of the indicated drug but not activated with PMA. • (C and D) Human neutrophils were treated, or not, with ricolinostat or GSK484 and then stimulated with 1 μM PMA. NETosis induction was measured as area of nuclei stained with DAPI. (C) 3D reconstruction of nuclei in each treatment (grid size 7.8 μm). (D) Quantification of DAPI signal from multiple fields of view (D) (n=9 for unstimulated, not pretreated with any drug [NT] and ricolinostat, n=7 for GSK484). • (E and F) Human neutrophils were treated as in (C-D), and immunoblot analysis of the indicated proteins was performed. Relative quantification of band intensity was analyzed with ImageJ software (F). White violins plots depict the quantification of histone H3 acetylation; red violin plots depict the quantification of histone H3 citrullination. Immunoblot in E is representative of four independent experiments. Gasdermin D NT, gasdermin D N terminal; pMLKL, phospho-MLKL. • (G) Human (left) or murine (right) neutrophils were treated, or not, with ricolinostat (10 μM) and then stimulated with 1 μM PMA for 3 h. ROS production was measured by luminescence with luminol-HRP. Histograms represent the total amount of ROS produced overtime. • (H) Murine neutrophils were treated, or not, with ricolinostat (10 μM) and then stimulated with fluorescent E. coli at the indicated multiplicity of infection (MOI) for 1 h. The histogram represents the percentage of neutrophils positive for E. coli staining. Graphs show mean±SEM. Statistics were calculated using one-way ANOVA (A, B, D) and two-way ANOVA (F, G, H) (*p<0.05; **p<0.01; ****p<0.0001. n.s., not significant). Statistics refers to the comparison with neutrophils stimulated with PMA alone (A, B). […]
FIGS. 5A-J. Class I/II HDACs drive NET formation. • A) Quantification of extracellular DNA released by neutrophils treated, or not, with 1 μM GSK484 for 1 h and then stimulated with 1 μM PMA for 4 hours. […] Extracellular DNA release was assessed in the supernatant 3 hours after PMA stimulation. […] NETosis induction was measured as level of anti-CitH3 fluorescent signal. […] NET induction was measured as in (C). […]

## CCCCN(Cc1ccc(C(=O)NO)cc1)C(=O)Nc1ccccc1 [nexturastat]
[1]
  NETosis (anti-CitH3 signal), comparison of class I/IIb and class IIb selective inhibitors: selective class IIb targeting did not

## Nc1ccccc1NC(=O)c1ccc(CNC(=O)OCc2cccnc2)cc1 [entinostat]
[2]; drugs 10, 2, 0.4, 0.08 μM for 1 h, then 1 μM PMA 3 h, FIG. 1B
  release of CitH3 (NET induction): no effect
[1]; drugs 10, 2, 0.4, 0.08 μM or GSK484 10 μM for 1 h, then 1 μM PMA 3 h, FIGS. 1A and 5D
  NET induction, measured as CitH3 staining: prevented NET release in a dose-dependent manner with an efficacy comparable with GSK484

## CN1CCc2c(c3ccccc3n2Cc2ccc(C(=O)NO)cc2)C1 [tubastatin A]
[1]
  NETosis (anti-CitH3 signal), comparison of class I/IIb and class IIb selective inhibitors: selective class IIb targeting did not

## O=C(CCCCCCNC(=O)c1cnc(N(c2ccccc2)c2ccccc2Cl)nc1)NO [citarinostat]
[2]; murine neutrophils, PMA, FIG. 5J
  NET formation (level of CitH3): inhibited NET formation to a comparable extent
[1]; 10, 2, 0.4, 0.08 μM for 1 h, then 1 μM PMA, FIGS. 5H, 5I
  NET formation (level of CitH3), two independent donors: inhibited NET formation to a comparable extent

## O=C(CCCCCCC(=O)Nc1ccc([C@H]2O[C@@H](CSc3nc(-c4ccccc4)c(-c4ccccc4)o3)C[C@@H](c3ccc(CO)cc3)O2)cc1)NO [tubacin]
[1]
  NETosis (anti-CitH3 signal), comparison of class I/IIb and class IIb selective inhibitors: class I/IIb HDAC inhibition prevented NETosis
